Measurements published in patent US5422350A, “Nitrogen substituted acridine and cytochrome P450 inhibitors and methods of use” (priority 1992, dated 1995).
Like-named read-outs stand apart in the source and are kept apart here.

Assays:
[1] = Clinical drug interaction study, tacrine with cimetidine; assay type: in vivo, human; details: 40 mg tacrine with 300-mg four times a day cimetidine vs tacrine alone
Excerpt: A. Somogyi and M. Muirhead, "Pharmacokinetic Interactions of Cimetidine", CLIN. PHARMACOKIN., Vol. 12, pp. 321-366 (1987).

P450 1A2 [2] = assay: in vitro; details: for 1-hydroxytacrine equivalents irreversibly bound to 1 mg microsomal protein: 1-hydroxytacrine 0.5 μM
Experimental: (§1) PHARMACOL., Vol. 42, pp. 767-772 (1990) was conducted. […] The effect of various enoxacin concentrations (8, 20, and 50 μM) on the extent of irreversible binding was examined in a separate study.

[3] = Single-dose pharmacokinetic and metabolic disposition study of [14C]tacrine HCl in human male volunteers; assay type: in vivo; details: for mean AUC(O-tldc), dose proportionality: 10 and 40 mg oral, plasma
Experimental: Plasma and red blood cells (RBC) were collected predose and for 48 hours postdose. Urine and feces were collected predose and for 96 hours postdose. Urine and plasma samples were analyzed directly by liquid scintillation spectrometry while RBC and fecal samples were solubilized prior to counting. […] Metabolic profiling of urine was performed by HPLC radioactivity detection. Metabolites were identified by HPLC/photodiode array/mass spectrometry.

[4] = Irreversible protein binding of 14C-tacrine-derived radioactivity, human liver microsomes; details: for effect on irreversible protein binding / Tacrine equivalents irreversibly bound to 1 mg microsomal protein: Human Prep B, 60 min; for Tacrine equivalents irreversibly bound to 1 mg microsomal protein: N = 3
Experimental: (§2) Total reaction volume was 3 mL. Reactions were stopped by freezing in liquid nitrogen or dry-ice acetone. […] D. J. Waxman and L. Axaroff, "Phenobarbital induction of cytochrome P-450 Gene Expression", BIOCHEM J, Vol. 281, pp. 577-592 (1992); P. Soucek and I. Gut, supra.
(§3) C. N. Martin and R. C. Garner: "Covalent Binding In Vitro and In Vivo" in BIOCHEMICAL TOXICOLOGY: A PRACTICAL APPROACH, Eds. K. Snell and B. Mullock, IRL, Wash. D.C. pp. 109-126 (1987).

[5] = tested on: ethoxyresorufin O-deethylase; details: rat liver microsomes, Back et al. (1983); cited from earlier work
P450 1A2 [6] = details: cited from earlier work
P450 1A2 [7] = target: T1, P450 1A2 (Homo sapiens, UniProt P05177); assay: in vitro
T1 sequence (P05177 2-516 limits assumed): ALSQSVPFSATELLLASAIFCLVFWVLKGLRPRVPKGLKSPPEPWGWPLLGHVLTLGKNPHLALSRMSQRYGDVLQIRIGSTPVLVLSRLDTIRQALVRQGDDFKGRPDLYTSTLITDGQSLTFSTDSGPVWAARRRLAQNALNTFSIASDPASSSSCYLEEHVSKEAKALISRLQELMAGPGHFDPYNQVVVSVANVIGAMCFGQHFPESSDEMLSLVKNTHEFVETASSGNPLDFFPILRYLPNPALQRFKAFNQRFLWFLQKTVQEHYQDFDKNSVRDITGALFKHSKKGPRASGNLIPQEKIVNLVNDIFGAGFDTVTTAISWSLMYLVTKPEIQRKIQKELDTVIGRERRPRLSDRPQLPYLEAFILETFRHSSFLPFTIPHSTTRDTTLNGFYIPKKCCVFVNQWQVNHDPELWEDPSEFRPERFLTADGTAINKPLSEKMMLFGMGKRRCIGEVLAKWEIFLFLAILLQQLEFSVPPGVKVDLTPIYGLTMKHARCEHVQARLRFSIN
Experimental: as §1

[8] = tested on: hepatocytes from MC induced male rats; assay: Irreversible binding of 14C-tacrine and 14C-1-hydroxytacrine in MC induced rat hepatocytes; assay type: in vitro ADME; details: for inhibition of irreversible binding for both tacrine and 1-hydroxytacrine: relative ranking
[9] = Irreversible protein binding of 14C-tacrine-derived radioactivity, rat liver microsomes; details: for effect on irreversible protein binding / Tacrine equivalents irreversibly bound to 1 mg microsomal protein: MC induced Rat, 60 min; for Tacrine equivalents irreversibly bound to 1 mg microsomal protein: N = 3; for effect of pretreatment on binding: rat
Experimental: as §2, §3

[10] = In vitro metabolism of 14C-tacrine in rat liver microsomes; details: microsomes from pretreated rats vs control
Experimental: as §2

[11] = 20 min, read-out: inhibition of 1-hydroxytacrine irreversible binding
[12] = 20 min, read-out: inhibition of tacrine irreversible binding
[13] = 1-hydroxytacrine 10 uM + inhibitor 50 uM
[14] = tacrine 10 uM + inhibitor 50 uM

Nc1c2c(nc3ccccc13)CCCC2O (stereo not shown) [1-Hydroxytacrine, 1-hydroxytacrine]
higher plasma concentrations [1]: approximately 40%
irreversible binding to human microsomal protein (P450 1A2 [2]; 1-hydroxytacrine): found to bind irreversibly
1-hydroxytacrine equivalents irreversibly bound to 1 mg microsomal protein (P450 1A2 [2]; enoxacin 0.0, 20 min): 0.018 ± 0.001
irreversible binding of derived radioactivity to microsomal protein (P450 1A2 [2]; Table 6, deletion of NADPH): no irreversible
mean AUC(O-tldc), dose proportionality [3]: increased greater than dose proportionally
elimination rate from plasma ([3]; all volunteers): appeared to be limited by the rate of formation
excretion and 1-hydroxytacrine plasma concentrations in cigarette smokers ([3]; smokers compared to nonsmokers): decreased excretion and lower 1-hydroxytacrine plasma concentrations

Nc1c2c(nc3ccccc13)CCC(O)C2 (stereo not shown) [2-hydroxytacrine]
mean AUC(O-tldc), dose proportionality [3]: increased greater than dose proportionally

Nc1c2c(nc3ccc(O)cc13)CCCC2 [7-Hydroxytacrine, 7-hydroxytacrine]
levels over time ([4]; time course through 1 hour): levels rise then fall over time

CCN(CC)CCCC(C)Nc1ccnc2cc(Cl)ccc12 (stereo not shown) [Chloroquine, 7-chloro-4-(4-diethylamino-1-methylbutylamino)quinoline]
inhibition of ethoxyresorufin O-deethylase activity [5]: inhibitors of ethoxyresorufin O-deethylase activity

CN/C(=N/CCSCc1nc[nH]c1C)NC#N [Cimetidine, N-cyano-N'-methyl-N"-[2[[(5-methyl-1H-imidazol-4-yl)methyl]thio]ethyl]guanidine]
inhibition of P450 enzymes including P450 1A2 (P450 1A2 [6]): inhibitor of P450 enzymes including P450 1A2

CCn1cc(C(=O)O)c(=O)c2cc(F)c(N3CCNCC3)nc21 [Enoxacin]
P450 1A2 inhibition (P450 1A2 [6]): selective inhibitor of P450 1A2
inhibition of tacrine irreversible binding and biotransformation (P450 1A2 [7]; 50 μM enoxacin vs 8, 20 μM): greatest inhibition
inhibition at 8 µM (P450 1A2 [7]; [11]): 8.2%
inhibition at 20 µM (P450 1A2 [7]; [11]): 22.2%
inhibition at 50 µM (P450 1A2 [7]; [11]): 51.7%
inhibition at 8 µM (P450 1A2 [7]; [12]): 14.4%
inhibition at 20 µM (P450 1A2 [7]; [12]): 29.8%
inhibition at 50 µM (P450 1A2 [7]; [12]): 43.4%
effect on the binding of 1-hydroxytacrine (P450 1A2 [7]; enoxacin 8, 20, 50 μM): inhibitory effect
inhibition at 50 µM (P450 1A2 [7]; read-out: inhibition of extent of irreversible binding (maximum)): ≤ 73%
1-hydroxytacrine equivalents irreversibly bound to 1 mg microsomal protein (P450 1A2 [2]; enoxacin 8.0, 20 min): 0.017 ± 0.001
1-hydroxytacrine equivalents irreversibly bound to 1 mg microsomal protein (P450 1A2 [2]; enoxacin 20.0, 20 min): 0.014 ± 0.001
1-hydroxytacrine equivalents irreversibly bound to 1 mg microsomal protein (P450 1A2 [2]; enoxacin 50.0, 20 min): 0.009 ± 0.001
Tacrine equivalents irreversibly bound to 1 mg microsomal protein (P450 1A2 [2]; Table 6, tacrine 0.3 μM, line below enoxacin 50.0 (concentration not given), 20 min): 0.023 ± 0.002
Tacrine equivalents irreversibly bound to 1 mg microsomal protein (P450 1A2 [2]; Table 6, tacrine 0.3 μM, line of enoxacin 20.0, 20 min): 0.036 ± 0.008
Tacrine equivalents irreversibly bound to 1 mg microsomal protein (P450 1A2 [2]; Table 6, tacrine 0.3 μM, line of enoxacin 50.0, 20 min): 0.028 ± 0.001
Tacrine equivalents irreversibly bound to 1 mg microsomal protein (P450 1A2 [2]; tacrine 0.5 μM + enoxacin 50 μM, 5 min): 0.009 ± 0.002 nmol
Tacrine equivalents irreversibly bound to 1 mg microsomal protein (P450 1A2 [2]; tacrine 0.5 μM + enoxacin 50 μM, 10 min): 0.017 ± 0.003 nmol
Tacrine equivalents irreversibly bound to 1 mg microsomal protein (P450 1A2 [2]; tacrine 0.5 μM + enoxacin 50 μM, 20 min): 0.026 ± 0.002 nmol
Tacrine equivalents irreversibly bound to 1 mg microsomal protein (P450 1A2 [2]; tacrine 0.5 μM + enoxacin 50 μM, 45 min): 0.052 ± 0.006 nmol
irreversible binding of 1-hydroxytacrine-derived radioactivity, Percent Control Value [8, 13]: 79.8%
inhibition of irreversible binding for both tacrine and 1-hydroxytacrine [8]: less of an effect
irreversible binding of tacrine-derived radioactivity, Percent Control Value [8, 14]: 78.9%

CCn1cnc(C(=O)NC)c1C(=O)NC [Ethimizol]
irreversible binding of 1-hydroxytacrine-derived radioactivity, Percent Control Value [8, 13]: 65.6%
inhibition of irreversible binding for both tacrine and 1-hydroxytacrine [8]: less of an effect
irreversible binding of tacrine-derived radioactivity, Percent Control Value [8, 14]: 80.1%

Cc1nc2c([nH]1)c(=O)n(C)c(=O)n2Cc1ccco1 [Furafylline, 1H-purine-2,6-dione, 3-(2-furanylmethyl)-3,7-dihydro-1,8-dimethyl]
irreversible binding of 1-hydroxytacrine-derived radioactivity, Percent Control Value [8, 13]: 31.7%
inhibition of irreversible binding for both tacrine and 1-hydroxytacrine [8]: most effective inhibitor
irreversible binding of tacrine-derived radioactivity, Percent Control Value [8, 14]: 31.6%

N[C@@H](CCC(=O)N[C@@H](CS)C(=O)NCC(=O)O)C(=O)O [Glutathione]
detectable adducts with the reactive intermediate [4]: failed to produce detectable adducts
effect on irreversible binding [4]: dramatic reduction in irreversible binding
effect on irreversible protein binding ([4]; with GSH (5 mM)): 85.0
Tacrine equivalents irreversibly bound to 1 mg microsomal protein ([4]; with GSH (5 mM)): 0.031 ± 0.001 nmol
effect on irreversible protein binding ([9]; with GSH (5 mM)): 58.3
Tacrine equivalents irreversibly bound to 1 mg microsomal protein ([9]; with GSH (5 mM)): 0.058 ± 0.005 nmol
irreversible binding of 1-hydroxytacrine-derived radioactivity, Percent Control Value ([8]; 1-hydroxytacrine 10 uM + glutathione 5 mM): 49.1%
irreversible binding of tacrine-derived radioactivity, Percent Control Value ([8]; tacrine 10 uM + glutathione 5 mM): 62.6%

NNC(=O)c1ccncc1 [Isoniazid]
effect of pretreatment on binding [9]: little or no effect on binding
effect of pretreatment (induction) on 1-hydroxytacrine formation [10]: markedly increased 1-hydroxytacrine formation

Cc1ccc2cc3c(ccc4ccccc43)c3c2c1CC3 [MC, 3-methylcholanthrene]
increase in binding compared to control rat ([9]; MC induced rat): ~3 fold
effect of pretreatment (induction) on 1-hydroxytacrine formation [10]: Less 1-hydroxytacrine was observed

CCC1(c2ccccc2)C(=O)NC(=O)NC1=O [Phenobarbital]
effect of pretreatment on binding [9]: little or no effect on binding
effect of pretreatment (induction) on 1-hydroxytacrine formation [10]: only a minimal effect on 1-hydroxytacrine formation

COc1cc(NC(C)CCCN)c2ncccc2c1 (stereo not shown) [Primaquine, 8-(4-amino-1-methylbutylamino)-6-methoxyquinoline]
inhibition of ethoxyresorufin O-deethylase activity [5]: inhibitors of ethoxyresorufin O-deethylase activity

B1: EH: human liver expoxide hydrase (EH) (protein, UniProt P07099 1-455, looked up)
Epoxide hydrolase 1: MWLEILLTSVLGFAIYWFISRDKEETLPLEDGWWGPGTRSAAREDDSIRPFKVETSDEEIHDLHQRIDKFRFTPPLEDSCFHYGFNSNYLKKVISYWRNEFDWKKQVEILNRYPHFKTKIEGLDIHFIHVKPPQLPAGHTPKPLLMVHGWPGSFYEFYKIIPLLTDPKNHGLSDEHVFEVICPSIPGYGFSEASSKKGFNSVATARIFYKLMLRLGFQEFYIQGGDWGSLICTNMAQLVPSHVKGLHLNMALVLSNFSTLTLLLGQRFGRFLGLTERDVELLYPVKEKVFYSLMRESGYMHIQCTKPDTVGSALNDSPVGLAAYILEKFSTWTNTEFRYLEDGGLERKFSLDDLLTNVMLYWTTGTIISSQRFYKENLGQGWMTQKHERMKVYVPTGFSAFPFELLHTPEKWVRFKYPKLISYSYMVRGGHFAAFEEPELLAQDIRKFLSVLERQ
detectable adducts with the reactive intermediate [4]: failed to produce detectable adducts
effect on irreversible binding ([4]; 14C tacrine incubations (Table 3, human and rat)): only a slight decrease in binding
effect on irreversible protein binding ([4]; with EH (100 ug)): 35.3
Tacrine equivalents irreversibly bound to 1 mg microsomal protein ([4]; with EH (100 ug)): 0.134 ± 0.026 nmol
effect on irreversible protein binding ([9]; with EH (100 ug)): 16.6
Tacrine equivalents irreversibly bound to 1 mg microsomal protein ([9]; with EH (100 ug)): 0.116 ± 0.007 nmol
